From patent publication US12215173B2, “Kappa opioid receptor peptide amide ligands” (priority 2019, dated 2025)
Square brackets hold non-standard residues; d marks the D form. Peptide text beside a SMILES is read from it. * marks the point of attachment. ξ: configuration not given here. Piperidin1yl(4-NH2,4-CO2Me) = COC(=O)C1(N)CCN(*)CC1; Pyrrolidinyl(3-NH2,3-CO2Me) = COC(=O)C1(N)CCN(*)C1; Tic = O=C(O)[C@@H]1Cc2ccccc2CN1; Aic = NC1(C(=O)O)Cc2ccccc2C1; ξL = CC(C)CC(N)C(=O)O

How the values were obtained:
[1] = molecular target: recombinant human kappa (KOR) opioid receptor (Homo sapiens (Human), UniProt P41145); assay: biochemical; type: binding; conditions: HEK293 cell membranes, 0.5 nM [3H]diprenorphine
[2] = molecular target: recombinant human mu (MOR) opioid receptor (Homo sapiens (Human), UniProt P35372); assay: Opioid receptor radioligand binding assay, MOR; conditions: HEK293 cell membranes, 0.5 nM [3H]DAMGO; read-out: MOR, IC50
[3] = molecular target: recombinant human delta (DOR) opioid receptor (Homo sapiens (Human), UniProt P41143); assay: Opioid receptor radioligand binding assay, DOR; conditions: HEK293 cell membranes, 0.5 nM [3H]DADLE; read-out: DOR, IC50
recombinant human delta (DOR) opioid receptor, sequence (P41143 whole entry, looked up): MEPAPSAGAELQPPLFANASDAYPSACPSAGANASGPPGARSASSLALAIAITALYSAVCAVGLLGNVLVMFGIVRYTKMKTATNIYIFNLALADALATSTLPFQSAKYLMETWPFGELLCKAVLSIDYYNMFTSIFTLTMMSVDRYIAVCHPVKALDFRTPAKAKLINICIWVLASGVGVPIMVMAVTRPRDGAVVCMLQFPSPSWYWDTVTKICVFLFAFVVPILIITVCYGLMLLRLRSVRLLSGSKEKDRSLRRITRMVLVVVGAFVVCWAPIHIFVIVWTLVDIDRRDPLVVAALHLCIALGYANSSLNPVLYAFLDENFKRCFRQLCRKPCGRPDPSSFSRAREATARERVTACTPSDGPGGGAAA

`COC(=O)C1(N)CCN(C(=O)[C@@H](CCCCN)NC(=O)[C@H]2CCCN2C(=O)[C@@H](Cc2ccccc2)NC(=O)[C@H](N)Cc2ccccc2)CC1` [Compound 89] (H-[dF][dF][dP][dK]-{Piperidin1yl(4-NH2,4-CO2Me)}) was tested, and the IC50 [1] was greater than 0.2 µM, the IC50 [2] was greater than 10 µM and the IC50 [3] was greater than 10 µM.

`CC(C)C[C@@H](NC(=O)[C@@H](Cc1ccccc1)NC(=O)[C@H](N)Cc1ccccc1)C(=O)N[C@H](CCCCN)C(=O)NCc1ccncc1O` [Compound 13-11] showed an IC50 [1] of 0.00091 µM, an IC50 [2] greater than 10 µM and an IC50 [3] greater than 10 µM.

`CC(C)C[C@@H](NC(=O)[C@@H](Cc1ccccc1)NC(=O)[C@H](N)Cc1ccccc1)C(=O)N[C@H](CCCCN)C(=O)NC1CCN(C(=O)C(=O)NC2CC2)CC1` [Compound 13-37] gave an IC50 [1] of 0.011 µM, an IC50 [2] of 9.29 µM and an IC50 [3] greater than 10 µM.

`COC(=O)C1(N)CCN(C(=O)[C@@H](CCCCN)NC(=O)C(CC(C)C)NC(=O)[C@@H](Cc2ccccc2)NC(=O)C2(N)Cc3ccccc3C2)C1` (stereo partly shown) [Compound 156] (H-[Aic][dF][ξL][dK]-{Pyrrolidinyl(3-NH2,3-CO2Me)}) gave an IC50 [1] of 0.0023 µM, an IC50 [2] of 5.37 µM and an IC50 [3] greater than 10 µM.

`COC(=O)C1(N)CCN(C(=O)[C@@H](CCCCN)NC(=O)[C@H]2CCCN2C(=O)[C@@H](Cc2ccccc2)NC(=O)[C@H](N)Cc2ccccc2)C1` (stereo partly shown) [Compound 92] (H-[dF][dF][dP][dK]-{Pyrrolidinyl(3-NH2,3-CO2Me)}) showed an IC50 [1] of 0.033 µM, an IC50 [2] greater than 10 µM and an IC50 [3] greater than 10 µM.

Work on `CCCN(C(=O)OC)C1CCN(C(=O)[C@@H](CCCCN)NC(=O)[C@@H](CC(C)C)NC(=O)[C@@H](Cc2ccccc2)NC(=O)[C@H](N)Cc2ccccc2)CC1` [Compound 13-49] yielded an IC50 [1] of 0.00046 µM, an IC50 [2] greater than 10 µM and an IC50 [3] greater than 10 µM.

Compound `COC(=O)C1(N)CCN(C(=O)[C@@H](CCCCN)NC(=O)C(CC(C)C)NC(=O)[C@@H](Cc2ccccc2)NC(=O)C2(N)Cc3ccccc3C2)CC1` (stereo partly shown) [Compound 158] (H-[Aic][dF][ξL][dK]-{Piperidin1yl(4-NH2,4-CO2Me)}) has an IC50 [1] of 0.0009 µM, an IC50 [2] of 5.37 µM and an IC50 [3] greater than 10 µM.

Compound `CC(C)C[C@@H](NC(=O)[C@@H](Cc1ccccc1)NC(=O)[C@H](N)Cc1ccccc1)C(=O)N[C@H](CCCCN)C(=O)N1CCN(C(=O)/C=C/C(=O)O)CC1` [Compound 13-25] has an IC50 [1] of 0.00556 µM, an IC50 [2] greater than 10 µM and an IC50 [3] greater than 10 µM.

In the case of `CC(C)C[C@@H](NC(=O)[C@@H](Cc1ccccc1)NC(=O)[C@H](N)Cc1ccccc1)C(=O)N[C@H](CCCCN)C(=O)N1CCC2(CC1)CNC(=O)N2` [Compound 13-46], the IC50 [1] is reported as 0.00031 µM, the IC50 [2] is reported as greater than 10 µM and the IC50 [3] is reported as greater than 10 µM.

For `COC(=O)C1(N)CCN(C(=O)[C@@H](CCCCN)NC(=O)[C@@H](CC(C)C)NC(=O)[C@@H]2Cc3ccccc3CN2C(=O)[C@H](N)Cc2ccccc2)C1` (stereo partly drawn) [Compound 146] (H-[dF][Tic][dL][dK]-{Pyrrolidinyl(3-NH2,3-CO2Me)}), the IC50 [1] was 0.164 µM, the IC50 [2] was greater than 10 µM and the IC50 [3] was greater than 10 µM.

For `CCCC[C@@H](NC(=O)[C@@H](Cc1ccccc1)NC(=O)[C@H](N)Cc1ccccc1)C(=O)N[C@H](Cc1cnc(N)nc1)C(=O)N1CCC(N)(C(=O)OC)C1` (stereo partly shown) [Compound 82], the IC50 [1] was 0.0425 µM, the IC50 [2] was 5.17 µM and the IC50 [3] was greater than 10 µM.

`COC(=O)C1(N)CCN(C(=O)[C@@H](CCCNC(=N)N)NC(=O)[C@H]2CCCN2C(=O)[C@@H](Cc2ccccc2)NC(=O)[C@H](N)Cc2ccccc2)CC1` [Compound 22] (H-[dF][dF][dP][dR]-{Piperidin1yl(4-NH2,4-CO2Me)}) showed an IC50 [1] of 0.2 µM, an IC50 [2] of 5.07 µM and an IC50 [3] greater than 10 µM.

For `COC(=O)C1(N)CCN(C(=O)[C@@H](CCCNC(=N)N)NC(=O)[C@H]2CCCN2C(=O)[C@@H](Cc2ccccc2)NC(=O)[C@H](N)Cc2ccccc2)C1` (stereo partly shown) [Compound 28] (H-[dF][dF][dP][dR]-{Pyrrolidinyl(3-NH2,3-CO2Me)}), the IC50 [1] was greater than 0.2 µM, the IC50 [2] was greater than 10 µM and the IC50 [3] was greater than 10 µM.

`CC(C)C[C@@H](NC(=O)[C@@H](Cc1ccccc1)NC(=O)[C@H](N)Cc1ccccc1)C(=O)N[C@H](CCCCN)C(=O)N1CCC(NC(=O)C(N)=O)CC1` [Compound 13-57] gave an IC50 [3] greater than 10 µM.
